Results on 13 molecules are retold here after patent US4055640A, “Compositions and methods for controlling the growth of bacteria, fungi and algae using certain derivatives of N-(2,2-dichlorovinyl)salicylamides” (Nippon Kayaku Co., Ltd., priority 1975, dated 1977).

In data set [1] the test system is Fusarium wilt of cucumber. The data set is described as follows: Exterminating test on Fusarium wilt of cucumber (Experimental Example 4). The class given is in vivo, Fusarium oxysporum f, cucumerinum. The following applies: 500 ppm, soil drench 100 ml per pot, two weeks; for pest or weed control at 500 ppm: Fusarium, soil, 336 h, read-out: Percentage of healthy seedlings. The protocol: Exterminating test on Fusarium wilt of cucumber Twenty (20) grams of infected soil was added uniformly into each pot which was filled with steam sterilized field soil, then 18 seeds of cucumber (variety; Tokiwazibai) were sowed in each pot. Eighty percent (80%) wettable powder of the present invention was diluted with water to obtain a suspension, and each pot was drenched with the suspension in an amount of 100 ml. Fifty percent (50%) wettable powder of methyl-1-(butylcarbamoyl) 2-benzimidazol carbamate (hereinafter referred to as Benlate) on the market was used as a control and tested by the same method. After two weeks of planting, degrees attacked by the pathogen was observed and a "percentage of healthy seedlings" was calculated as follows: [formula]

The subject of data set [2] is seedling blight of rice plant (pathogen Fusarium sp. and Rhizoctonia sp.). In words: Exterminating test on seedling blight of rice plant (Experimental Example 1). Format: in vivo. The settings on record: 408 h; for Percentage of healthy seedlings at 0.25 g/box: soil, 0.25g/box a.i., 5% dust mixed with soil, read-out: Percentage of healthy seedlings. The protocol: Exterminating test on seedling blight of rice plant Nursery boxes (60 × 30 × 3 cm) were filled with soil which were contaminated with pathogen (Fusarium sp. and Rhizoctonia sp.) The dust in which the present compound was contained in a ratio of 5% by weight was added in the box in a ratio of 5 grams per box and mixed well with soil. Thereafter, seeds of rice plant (variety: Nihonbare) were sowed in drills at a rate of 0.3 liter per box and grown up in a lighting chamber at 17° C. After 7 days from the sowing, the boxes were carried out in the field. Furthermore, 10 days thereafter the observations were made. Four percent (4%) dust of 3-hydroxy-5-methyl isoxazol (hereinafter referred to as hydroxyisoxazol) on the market was used as a control and tested by the same method. The test results are shown in Table 2 with a "percentage of healthy seedlings". The percentage of healthy seedlings was calculated as follows: […]

For data set [3], the system named is Rhizoctonia solani (damping-off of cucumber). In words: Exterminating test on damping-off of cucumber (Experimental Example 3). The class given is in vivo. The settings on record: soil drench 50 ml per pot, 10 days; for pest or weed control at 1000 ppm: Rhizoctonia solani, soil, 240 h, 1,000 ppm, read-out: Percentage of healthy seedlings. As for the experimental part:
Exterminating test on damping-off of cucumber
The pots (diameter, 12 cm) were filled with field soil and then soil infected by adding Rhizoctonia solani in an amount of 5 grams per pot uniformly into the pots. Thereafter, 10 seeds of cucumber (variety: Azumamidori) were sown in each pot.
Eighty percent (80%) wettable powder of the present invention was diluted with water to obtain a suspension and each pot was drenched with the suspension in an amount of 50 milliliters. Then, the pots were transferred to the greenhouse. Fifty percent (50%) wettable powder of pentachloronitro benzene (hereinafter referred to as PCNB) on the market was used as a control and tested by the same method. After 10 days of the inoculation, degrees attacked by the pathogen were observed and a "Percentage of healthy seedlings" was calculated. The "Percentage of healthy seedlings" was calculated as follows: [formula]

For data set [4], the system named is summer orange seedlings. The data set is described as follows: Phytotoxicity on summer orange seedlings (Experimental Example 6). The settings on record: 1,000 ppm. Format: in vivo. The protocol:
Exterminating test on citrus canker. 4-year-old summer orange seedlings, planted in unglazed pots having a diameter of 20 cm, were employed in this test. Eighty percent (80%) wettable powder of the present invention was diluted with water, and sprayed over the seedlings in an amount of 50 ml per pot. The leaves of the seedlings were inoculated Xanthomonas citri by means of a needle. After the inoculation, the seedlings were maintained in a moist chamber at 25° C for 24 hours. Then the pots were transferred into the greenhouse. Streptomycin 20% wettable powder was used as a control, and tested by the same method. After 2 weeks after the inoculation, degrees of disease attack were observed, and an "Effect Index" was calculated as follows: [formula]

The test system of data set [5] is Aspergillus niger, Penicillium citrinum, Cladosporium harbarum and chaetomium globosum. In words: Degree of growth inhibition of fungi on treated beach plates (Example 25). Format: cell-based. Set-up: scale not given here. The following applies: numerical rating, 2 weeks. As for the experimental part:
The emulsifiable concentrates which were prepared by Example 20 were diluted with water 400 times and 800 times to form emulsions.
The square plates of beach of which a side was 5 cm long and thickness was 5 mm were dipped into the emulsion for 2 minutes and dried for 24 hours at room temperature.
The square plates were placed on the surface of agar plates. The suspensions which contained spores of Aspergillus niger, Penicillium citrinum, Cladosporium harbarum and chaetomium globosum were respectively sprayed on the agar plates and the square plates.
The test fungi were cultivated in the incubator at the humidity of 95% and the temperature of 28° C for 2 weeks. The degree of growth inhibition is defined in terms of the following numerical ratings.

As to `O=C(NC=C(Cl)Cl)c1cc(Cl)cc(Cl)c1O` [compound 33], the pest or weed control at 500 ppm in data set [1] turned out to be 48%. In data set [2], the Percentage of healthy seedlings at 0.25 g/box stood at 70.4%.

Consider `O=C(NC=C(Cl)Cl)c1cccc([N+](=O)[O-])c1O` [compound 31], for which the pest or weed control at 1000 ppm in data set [3] turned out to be 85%. Further, in data set [1], the pest or weed control at 500 ppm came to 46%. For the same molecule, in data set [2], the Percentage of healthy seedlings at 0.25 g/box is 70.2%.

As for `O=C(NC=C(Cl)Cl)c1cc(Br)ccc1O` [compound 3], the Phytotoxicity entry in data set [4] is reported as “Nil”. For the same molecule, the pest or weed control at 1000 ppm in data set [3] was determined as 70%. Moreover, the pest or weed control at 500 ppm in data set [1] was determined as 62.4%. In data set [2], the Percentage of healthy seedlings at 0.25 g/box came out at 65.3%.

As to `COC(=O)Oc1ccccc1C(=O)NC=C(Cl)Cl` [Compound No. 16, O-methoxycarbonyl-N-(2,2-dichlorovinyl) salicylamide], the pest or weed control at 1000 ppm in data set [3] is 100%. Moreover, in data set [1], the pest or weed control at 500 ppm is 38.2%. In data set [2], the Percentage of healthy seedlings at 0.25 g/box worked out at 71.5%.

Consider `CC(=O)Oc1c(C(=O)NC=C(Cl)Cl)cccc1[N+](=O)[O-]` [compound 35], for which, in data set [3], the pest or weed control at 1000 ppm is 95%. For the same molecule, the pest or weed control at 500 ppm in data set [1] amounted to 79%. Besides, the Percentage of healthy seedlings at 0.25 g/box in data set [2] came to 71.2%.

Consider `O=C(NC=C(Cl)Cl)c1cc(Br)ccc1[O-].O=C(NC=C(Cl)Cl)c1cc(Br)ccc1[O-].[Cu+2]` [compound 27], for which the “Percentage of healthy seedlings” value in data set [3] (1,000 ppm) is listed as 85%; in data set [1], 58.0%.

As for `O=C(NC=C(Cl)Cl)c1cc(Br)ccc1O` [compound 22], the Phytotoxicity result in data set [4] is “Nil”.

`CC(=O)Oc1c(Cl)cc(Cl)cc1C(=O)NC=C(Cl)Cl` [compound 32]: the pest or weed control at 1000 ppm in data set [3] worked out at 75%. Besides, in data set [1], the pest or weed control at 500 ppm was determined as 73%. Moreover, in data set [2], the Percentage of healthy seedlings at 0.25 g/box stood at 69.8%.

For `CC(C)COC(=O)Oc1ccccc1C(=O)NC=C(Cl)Cl` [compound 18], the pest or weed control at 1000 ppm in data set [3] was determined as 100%. The “Degree of growth inhibition” value turned out to be 2 in data set [5] (0.0125 %) and 3 in data set [5] (0.025 %). Moreover, the pest or weed control at 500 ppm in data set [1] was 42%. Besides, the Percentage of healthy seedlings at 0.25 g/box in data set [2] worked out at 72.1%.

As for `CCCCCCCCCCCC(=O)Oc1ccccc1C(=O)NC=C(Cl)Cl` [compound 12], in data set [3], the pest or weed control at 1000 ppm was determined as 70%. Further, the pest or weed control at 500 ppm in data set [1] turned out to be 53.4%. The Percentage of healthy seedlings at 0.25 g/box in data set [2] came out at 65%.

Take `CC(=O)Oc1ccc(Br)cc1C(=O)NC=C(Cl)Cl` [compound 8]: the pest or weed control at 1000 ppm in data set [3] was found to be 75%. Further, the “Degree of growth inhibition” value in data set [5] (0.0125 %) and in data set [5] (0.025 %) was 3 each time. In addition, in data set [1], the pest or weed control at 500 ppm stood at 73.3%. Further, the Percentage of healthy seedlings at 0.25 g/box in data set [2] came out at 71.3%.

In the case of `Cc1cc(O)no1` [Hydroxyisoxazol, 3-hydroxy-5-methyl isoxazol, reference compound], the Percentage of healthy seedlings at 0.2 g/box in data set [2] (0.20g/box a.i., 4% dust on the market (control)) amounted to 70.6%.

With `Cc1cccc(C(=O)NC=C(Cl)Cl)c1O` [compound 4], the pest or weed control at 1000 ppm in data set [3] amounted to 90%. In data set [1], the pest or weed control at 500 ppm stood at 68.7%. The Percentage of healthy seedlings at 0.25 g/box in data set [2] worked out at 76.6%.
